Drawing on ChEMBL document CHEMBL2074446, “Contribution of P-glycoprotein to efflux of ramosetron, a 5-HT3 receptor antagonist, across the blood-brain barrier” (J Pharm Pharmacol, 2002), this text covers Activity for one molecule.

What all share (assay type): functional, cell-based
The target of series [1] is ATP-dependent translocase ABCB1 (Mus musculus, UniProt P06795). Nature of the series: TP_TRANSPORTER: uptake, not inhibited by Verapamil in MBEC4 cell.
In series [2] the target is ATP-dependent translocase ABCB1 (Mus musculus, UniProt P21447). Nature of the series: TP_TRANSPORTER: uptake in L cell and LV500 cell.
Sequence of ATP-dependent translocase ABCB1 (Mus musculus, UniProt P21447) (P21447 whole entry): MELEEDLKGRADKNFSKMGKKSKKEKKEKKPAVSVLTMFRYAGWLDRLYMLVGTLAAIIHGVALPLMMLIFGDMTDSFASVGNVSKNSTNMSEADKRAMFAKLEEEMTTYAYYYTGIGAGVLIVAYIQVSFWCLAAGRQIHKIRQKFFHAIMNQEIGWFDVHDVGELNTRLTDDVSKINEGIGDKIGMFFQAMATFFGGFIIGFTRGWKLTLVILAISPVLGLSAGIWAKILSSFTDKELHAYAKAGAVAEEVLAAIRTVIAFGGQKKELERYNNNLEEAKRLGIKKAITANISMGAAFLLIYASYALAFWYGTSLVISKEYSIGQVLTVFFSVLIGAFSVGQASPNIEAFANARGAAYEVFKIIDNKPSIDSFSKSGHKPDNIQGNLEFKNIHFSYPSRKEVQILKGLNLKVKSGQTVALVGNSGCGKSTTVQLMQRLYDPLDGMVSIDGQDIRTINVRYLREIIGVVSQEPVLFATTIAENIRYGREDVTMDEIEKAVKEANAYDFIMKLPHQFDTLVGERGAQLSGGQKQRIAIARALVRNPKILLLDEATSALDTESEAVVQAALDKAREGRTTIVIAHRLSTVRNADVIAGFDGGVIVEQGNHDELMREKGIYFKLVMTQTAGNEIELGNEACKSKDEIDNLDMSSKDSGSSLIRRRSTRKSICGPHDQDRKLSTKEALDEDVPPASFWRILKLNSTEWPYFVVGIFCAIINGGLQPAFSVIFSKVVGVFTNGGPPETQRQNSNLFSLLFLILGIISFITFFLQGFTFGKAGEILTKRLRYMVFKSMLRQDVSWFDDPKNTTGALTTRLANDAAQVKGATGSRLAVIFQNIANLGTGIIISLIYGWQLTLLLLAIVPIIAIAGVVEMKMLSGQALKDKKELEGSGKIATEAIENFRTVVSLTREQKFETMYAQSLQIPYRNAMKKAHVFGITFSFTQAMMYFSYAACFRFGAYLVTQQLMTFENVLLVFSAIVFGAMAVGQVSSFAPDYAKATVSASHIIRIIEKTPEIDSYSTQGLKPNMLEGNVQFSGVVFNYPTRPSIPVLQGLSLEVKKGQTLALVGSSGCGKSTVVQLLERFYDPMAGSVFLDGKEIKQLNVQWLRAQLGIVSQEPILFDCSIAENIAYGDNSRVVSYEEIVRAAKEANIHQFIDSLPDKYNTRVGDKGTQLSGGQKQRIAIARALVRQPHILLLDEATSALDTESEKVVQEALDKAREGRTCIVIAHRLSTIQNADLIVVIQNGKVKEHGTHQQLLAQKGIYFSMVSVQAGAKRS
The target of series [3] is ATP-dependent translocase ABCB1 (Homo sapiens, UniProt P08183). Nature of the series: TP_TRANSPORTER: uptake in LLC-PK1 cell and LLC-GA5-COL300 cells. The settings on record: pig.
Sequence of ATP-dependent translocase ABCB1 (Homo sapiens, UniProt P08183) (P08183 whole entry): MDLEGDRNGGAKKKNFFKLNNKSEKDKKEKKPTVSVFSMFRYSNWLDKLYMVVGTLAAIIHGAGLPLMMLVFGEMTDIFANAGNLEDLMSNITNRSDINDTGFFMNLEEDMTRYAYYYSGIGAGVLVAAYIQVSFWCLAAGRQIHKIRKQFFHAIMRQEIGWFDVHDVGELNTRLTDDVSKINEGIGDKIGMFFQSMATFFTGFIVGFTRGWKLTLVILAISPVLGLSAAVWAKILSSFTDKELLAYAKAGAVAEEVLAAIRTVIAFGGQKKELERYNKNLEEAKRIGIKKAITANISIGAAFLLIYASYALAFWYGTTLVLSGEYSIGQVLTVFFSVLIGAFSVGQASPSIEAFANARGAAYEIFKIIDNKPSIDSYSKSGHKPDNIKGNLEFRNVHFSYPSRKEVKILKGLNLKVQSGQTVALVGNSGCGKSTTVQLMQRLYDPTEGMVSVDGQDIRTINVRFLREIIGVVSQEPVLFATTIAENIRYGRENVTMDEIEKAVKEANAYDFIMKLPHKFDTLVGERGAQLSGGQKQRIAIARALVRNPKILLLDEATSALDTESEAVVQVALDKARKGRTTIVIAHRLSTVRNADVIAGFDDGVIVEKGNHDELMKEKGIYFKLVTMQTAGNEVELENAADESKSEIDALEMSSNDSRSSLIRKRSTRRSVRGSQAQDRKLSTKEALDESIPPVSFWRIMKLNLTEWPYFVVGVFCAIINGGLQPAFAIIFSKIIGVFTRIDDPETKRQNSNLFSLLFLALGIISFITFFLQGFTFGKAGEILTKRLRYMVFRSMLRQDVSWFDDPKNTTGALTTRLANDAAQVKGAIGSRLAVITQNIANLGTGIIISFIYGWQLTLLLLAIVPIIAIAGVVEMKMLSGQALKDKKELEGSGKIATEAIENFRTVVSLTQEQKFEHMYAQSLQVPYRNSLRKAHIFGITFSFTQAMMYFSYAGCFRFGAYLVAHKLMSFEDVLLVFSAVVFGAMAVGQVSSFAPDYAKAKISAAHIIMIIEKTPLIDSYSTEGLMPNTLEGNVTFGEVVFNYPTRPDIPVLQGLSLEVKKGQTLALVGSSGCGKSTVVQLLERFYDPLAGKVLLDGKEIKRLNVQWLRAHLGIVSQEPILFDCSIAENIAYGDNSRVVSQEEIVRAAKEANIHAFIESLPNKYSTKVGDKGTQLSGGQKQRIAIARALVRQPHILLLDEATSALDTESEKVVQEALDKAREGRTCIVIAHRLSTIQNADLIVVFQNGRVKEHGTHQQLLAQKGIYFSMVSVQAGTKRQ

SMILES strings stand for the structures.

Sequence of ATP-dependent translocase ABCB1 (Mus musculus, UniProt P06795) (P06795 whole entry): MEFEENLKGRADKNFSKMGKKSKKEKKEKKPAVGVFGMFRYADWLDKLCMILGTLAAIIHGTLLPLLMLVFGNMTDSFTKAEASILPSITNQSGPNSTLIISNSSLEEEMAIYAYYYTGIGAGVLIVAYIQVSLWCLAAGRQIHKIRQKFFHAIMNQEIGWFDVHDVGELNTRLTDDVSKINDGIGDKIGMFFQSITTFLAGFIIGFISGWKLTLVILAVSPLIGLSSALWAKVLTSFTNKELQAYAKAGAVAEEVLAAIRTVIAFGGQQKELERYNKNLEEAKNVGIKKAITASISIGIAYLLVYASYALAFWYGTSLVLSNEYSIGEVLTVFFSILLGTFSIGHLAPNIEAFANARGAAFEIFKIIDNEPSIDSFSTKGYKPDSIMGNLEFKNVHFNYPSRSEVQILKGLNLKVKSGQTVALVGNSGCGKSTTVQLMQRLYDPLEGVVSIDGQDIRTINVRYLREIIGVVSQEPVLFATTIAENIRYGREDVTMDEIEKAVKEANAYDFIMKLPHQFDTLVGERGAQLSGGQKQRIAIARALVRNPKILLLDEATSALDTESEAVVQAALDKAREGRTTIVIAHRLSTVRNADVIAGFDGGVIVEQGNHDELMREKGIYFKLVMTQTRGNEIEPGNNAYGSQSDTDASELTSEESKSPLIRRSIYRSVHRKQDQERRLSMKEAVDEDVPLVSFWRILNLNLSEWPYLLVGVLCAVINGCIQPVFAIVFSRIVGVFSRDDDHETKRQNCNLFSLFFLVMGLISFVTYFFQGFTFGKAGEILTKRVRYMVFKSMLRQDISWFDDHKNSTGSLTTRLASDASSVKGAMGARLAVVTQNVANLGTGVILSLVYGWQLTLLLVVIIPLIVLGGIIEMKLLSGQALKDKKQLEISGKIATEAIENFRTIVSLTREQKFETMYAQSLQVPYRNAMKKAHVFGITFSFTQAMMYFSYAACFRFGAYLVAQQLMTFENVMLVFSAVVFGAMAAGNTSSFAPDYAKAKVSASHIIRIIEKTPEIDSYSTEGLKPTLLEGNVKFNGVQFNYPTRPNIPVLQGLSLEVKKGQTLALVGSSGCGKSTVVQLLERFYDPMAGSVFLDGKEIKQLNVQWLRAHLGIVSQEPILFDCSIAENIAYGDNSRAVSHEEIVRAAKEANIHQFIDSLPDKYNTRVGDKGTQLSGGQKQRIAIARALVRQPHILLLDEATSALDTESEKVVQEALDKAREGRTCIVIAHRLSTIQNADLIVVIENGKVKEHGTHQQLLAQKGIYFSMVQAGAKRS

For the molecule `Cn1cc(C(=O)[C@@H]2CCc3nc[nH]c3C2)c2ccccc21` [RAMOSETRON], the Activity entry was “is not a substrate [-]” in series [1], “substrate [+]” in series [2] and “substrate [+]” in series [3].
